For assay [1], the system named is B. anthracis Sterne strain (Gram+). It counts as cell-based, Bacillus anthracis Sterne strain. The conditions noted are these: unit assumed.
For the next assay, the system named is Escherichia coli (Gram−). Put plainly: Minimum inhibitory concentration (MIC) study of quaternary ammonium biocides. It counts as cell-based. Conditions: unit assumed.
For another assay, the system named is S. aureus (Gram+). The assay is described as above. It counts as cell-based, Staphylococcus aureus. The conditions noted are these: unit assumed.
In assay [2] the test system is Salmonella typhimurium (Gram−). The assay is described as above. It counts as cell-based. Conditions: unit assumed.
Another assay relates to S. aureus. In words: Tube dilution method with neutralizing agent to quench residual biocide activity. It counts as cell-based, Staphylococcus aureus. The conditions noted are these: starting cfu/mL 5.46 × 10^7; NG = no growth.
For a further assay, the system named is E. coli. The assay is described as above. It counts as cell-based, Escherichia coli. The conditions noted are these: starting cfu/mL 4.76 × 10^7; NG = no growth.
The subject of the next assay is B. anthracis Sterne. It counts as cell-based, Bacillus anthracis Sterne strain.

`CCCCCC[N+](C)(C)CCOC.[Br-]` [Entry 1, Hexyl-(2-methoxy-ethyl)-dimethyl-ammonium bromide] gave an MIC B. anthracis (Gram+) in assay [1] of 5 µg/mL. The compound also yielded an MIC E. coli (Gram−) in the assay with Escherichia coli (Gram−) of 2.5 µg/mL. The MIC S. aureus (Gram+) against S. aureus (Gram+) was 2.5 µg/mL. In addition, in assay [2], the MIC S. typhimurium (Gram−) amounted to 2.5 µg/mL.

Take `CCCCCC[N+](C)(C)CCOCCOC.[Br-]` [Entry 2, Hexyl-[2-(2-methoxy-ethoxy)-ethyl]-dimethyl-ammonium bromide]: the MIC B. anthracis (Gram+) in assay [1] is > 5 µg/mL. In the assay on Escherichia coli (Gram−), this compound showed an MIC E. coli (Gram−) of 2.5 µg/mL. Also, in the assay on S. aureus (Gram+), the MIC S. aureus (Gram+) is > 5 µg/mL. Moreover, the MIC S. typhimurium (Gram−) in assay [2] was > 5 µg/mL.

`CCCCCC[N+](C)(C)CCOCCOCCOC.[Cl-]` [Entry 3] displayed an MIC B. anthracis (Gram+) in assay [1] of 2.5 µg/mL. In addition, the MIC E. coli (Gram−) against Escherichia coli (Gram−) was determined as 2.5 µg/mL. In the assay with S. aureus (Gram+), the MIC S. aureus (Gram+) is > 5 µg/mL. For the same compound, the MIC S. typhimurium (Gram−) in assay [2] was > 5 µg/mL.

Consider `CCCCCC[N+](C)(C)CCOCCOCCOCCOC.[Cl-]` [Entry 4], for which the MIC B. anthracis (Gram+) in assay [1] was determined as 5 µg/mL. This compound displayed an MIC E. coli (Gram−) with Escherichia coli (Gram−) of 2.5 µg/mL. The compound further registered an MIC S. aureus (Gram+) in the assay on S. aureus (Gram+) of 2.5 µg/mL. In addition, the MIC S. typhimurium (Gram−) in assay [2] was found to be 5 µg/mL.

Take `CCCCCCCC[N+](C)(C)CCOC.[Cl-]` [Entry 5]: the MIC B. anthracis (Gram+) in assay [1] was < 0.312 µg/mL. In the assay on Escherichia coli (Gram−), this compound showed an MIC E. coli (Gram−) of 0.625 µg/mL. In addition, in the assay on S. aureus (Gram+), the MIC S. aureus (Gram+) stood at 0.18 µg/mL. For the same compound, the MIC S. typhimurium (Gram−) in assay [2] was 2.5 µg/mL.

`CCCCCCCC[N+](C)(C)CCOCCOC.[Cl-]` [Entry 6] displayed an MIC B. anthracis (Gram+) in assay [1] of 1.25 µg/mL. In the assay with Escherichia coli (Gram−), this compound had an MIC E. coli (Gram−) of 2.5 µg/mL. In the assay on S. aureus (Gram+), this compound showed an MIC S. aureus (Gram+) of 0.31 µg/mL. The MIC S. typhimurium (Gram−) in assay [2] is 5 µg/mL.

Regarding `CCCCCCCC[N+](C)(C)CCOCCOCCOC.[Cl-]` [Entry 7], in assay [1], the MIC B. anthracis (Gram+) was determined as 0.625 µg/mL. The same compound registered an MIC E. coli (Gram−) against Escherichia coli (Gram−) of 2.5 µg/mL. Moreover, in the assay on S. aureus (Gram+), the MIC S. aureus (Gram+) stood at 0.5 µg/mL. The compound also showed an MIC S. typhimurium (Gram−) in assay [2] of 2.5 µg/mL.

On to `CCCCCCCC[N+](C)(C)CCOCCOCCOCCOC.[Cl-]` [Entry 8], for which the MIC B. anthracis (Gram+) in assay [1] was 0.312 µg/mL. The compound further returned an MIC E. coli (Gram−) with Escherichia coli (Gram−) of 1.25 µg/mL. Further, the MIC S. aureus (Gram+) with S. aureus (Gram+) amounted to 0.8 µg/mL. This compound also returned an MIC S. typhimurium (Gram−) in assay [2] of 2.5 µg/mL.

As to `CCCCCCCC[N+](C)(C)CCOCCO.[Cl-]` [Entry 9, Octyl-(2-(2-hydroxy-ethoxy)-ethyl)dimethylammonium chloride], the MIC B. anthracis (Gram+) in assay [1] worked out at 1.25 µg/mL. For the same compound, the MIC E. coli (Gram−) in the assay with Escherichia coli (Gram−) was determined as 5 µg/mL. The same compound returned an MIC S. aureus (Gram+) with S. aureus (Gram+) of 1.25 µg/mL. Besides, the MIC S. typhimurium (Gram−) in assay [2] amounted to 5 µg/mL.

Turning to `CCCCCC[N+](C)(C)CCOCCO.[Cl-]` [Entry 10, Hexyl-(2-(2-hydroxy-ethoxy)-ethyl)dimethylammonium chloride], the MIC B. anthracis (Gram+) in assay [1] is > 5 µg/mL. Besides, the MIC E. coli (Gram−) in the assay on Escherichia coli (Gram−) was determined as 5 µg/mL. In addition, the MIC S. aureus (Gram+) in the assay with S. aureus (Gram+) is > 5 µg/mL. The MIC S. typhimurium (Gram−) in assay [2] was > 5 µg/mL.

In the case of `c1ccncc1` [Pyridinium], the “S. aureus count after biocide, tube dilution method” value in the assay on S. aureus is given as 10^6 cfu/mL. For the same compound, in the assay with E. coli, the “E. Coli count after biocide, tube dilution method” value is recorded as 10^7 cfu/mL. For the same compound, the “B. anthracis S.S. count after biocide, tube dilution method” value with B. anthracis Sterne is recorded as 10^6 cfu/mL.

Values taken from US7452951B2, “Multifunctional self-decontaminating surface coating” (priority 2004, dated 2008).
